These results are taken from patent US8828992B2, “Substituted azole derivatives, pharmaceutical composition containing the derivatives, and method for treating Parkinson's disease using the same” (priority 2009, dated 2014).

Read-outs that look alike come from different tables or passages of the source.

Test [1] relates to dopamine (DA) in the striatum of a MPTP-treated mouse. Kind of test: Combined administration with Levodopa group: dopamine in the striatum of MPTP-treated mouse (HPLC). Format: in vivo. The following applies: compound 1 mg/kg PO co-administered with Levodopa group (Levodopa 50 mg/kg + Benzerazide 25 mg/kg IP); for Concentration of dopamine compared to a control group %, 1 hr: 1 hr after Levodopa; for Concentration of dopamine compared to a control group %, 3 hr: 3 hr after Levodopa. The protocol: MPTP (20 mg/kg, free base; Sigma, St. louis, Mo.) was administered to an 8 week old (20-25 g) male C57BL/6 test mouse intraperitoneally at the interval of 2 hours to construct a model.
In order to observe the effects of combined administration of a compound of the present invention and Levodopa, the compound of the present invention was dissolved in a solution containing 0.02 ml of dimethylsulfoxide (DMSO), 0.02 ml of Cremophor, 0.08 ml of polyethyleneglycol (PEG), and 0.08 ml of physiological saline. The resulting solution was orally administered at doses of 1 mg/kg one week after the MPTP treatment, and a Levodopa group containing Levodopa at 50 mg/kg and Benzerazide at 25 mg/kg was intraperitoneally administered 1 hour later.
A single administration of the Levodopa group in the following Table 4 indicates values resulting from a MPTP (toxin) treatment followed by an administration of the Levodopa group compared to the treatment results of a Levodopa single administration group of Levodopa and Benzerazide.
At 1 hour and 3 hours after administration of Levodopa, the animals were sacrificed by cervical vertebra dislocation and the brain tissues were immediately isolated from the animals. 0.5 me of iced solution for HPLC analysis (0.1 M perchloric acid and 0.1 mM EDTA) was added to a striatum obtained from the isolated brain tissues, and an ultrasonic grinder was used to prepare a tissue homogenate. The tissue homogenate was centrifuged at 12,000 rpm for 15 minutes, and its supernatant was filtered through nitrocellulose membrane filter (0.2 um, Millipore). For HPLC analysis, uBondapak™ C18 column (4.6×150 mm, particle size 10 μm: Shisheido, Japan) was used, the flow rate of the mobile phase (0.07 M monobasic sodium phosphate, 1 mM sodium octasulfonic acid, 0.1 uM EDTA, 5% acetonitrile, pH 3.2) was maintained at 0.5 me/min, and the electrode potential of the electrochemical detector (CouloChem III, ESA, Japan) was set at 350 mV.

The test system of test [2] is MPTP-induced mouse model. Kind of test: Tail suspension test in MPTP-induced mouse model of Parkinson's disease. The following applies: administration concentration 10 (10 mg/kg), oral, 7 days after MPTP, % of control group (Sham); for response vs control in vivo at 10 mg/kg: Mus musculus, 168 h, read-out: Mobility (%). The test is classed as in vivo. As for the experimental part:
A. MPTP (1-methyl-4-phenyl-1,2,3,6-tetrahydropyridine) and drug treatment MPTP (20 mg/kg, free base; Sigma, St. louis, Mo.) was administered to an 8 week old (20-25 g) male C57BL/6 test mouse intraperitoneally three times a day at the interval of 2 hours to construct a model (Breidert et al., 2002; Lichuan Yang, Shuei Sugama, Jason W. Chirichigno, Jason Gregorio, Stefan Lorenzl, Dong H. Shin, Susan E. Browne, Yoshinori Shimizu, Tong H. Joh, M. Flint Beal, l and David S. Alber. (2003) Minocycline Enhances MPTP Toxicity to Dopaminergic Neurons. J Neurosci Res. 74:278-285). In order to observe the protective effects of the compound as a candidate drug, the compound was dissolved in a solution containing 10% dimethylsulfoxide (DMSO), 10% Cremophor, and 40% polyethyleneglycol (PEG), […] treatment. Rasagiline as a control drug was also dissolved in the same solution, and the resulting solution was administered at the same doses in the same manner as above. A control group (Sham) in which MPTP was not administered was constructed by intraperitoneally administering saline solution to the group instead of MPTP in the same manner as above and orally administering the same solution 1 hour before and after PBS treatment.
A tail suspension test was performed in order to measure the induction degree of behavioral dysfunctions in accordance with administration of MPTP and a drug. At 7 days after administration of the drug, a round stainless steel rod (width: 1 cm) was affixed to a cage (width: 16 cm, height: 40 cm) 35 cm above from the surface shielded by black wooden structures in the left and right sides to perform experiments. The time for which the animal moved for a total period of 6 minutes was measured in seconds to evaluate the drug action.
Mobility refers to an expression of the measurement of the time for which the animal moved with its tail hung high as a percentage compared to the measurement of a control group.

The target in test [3] is T1, Monoamineoxidase B type human-derived enzyme (Homo sapiens, UniProt P27338).
T1 sequence (P27338 1-520): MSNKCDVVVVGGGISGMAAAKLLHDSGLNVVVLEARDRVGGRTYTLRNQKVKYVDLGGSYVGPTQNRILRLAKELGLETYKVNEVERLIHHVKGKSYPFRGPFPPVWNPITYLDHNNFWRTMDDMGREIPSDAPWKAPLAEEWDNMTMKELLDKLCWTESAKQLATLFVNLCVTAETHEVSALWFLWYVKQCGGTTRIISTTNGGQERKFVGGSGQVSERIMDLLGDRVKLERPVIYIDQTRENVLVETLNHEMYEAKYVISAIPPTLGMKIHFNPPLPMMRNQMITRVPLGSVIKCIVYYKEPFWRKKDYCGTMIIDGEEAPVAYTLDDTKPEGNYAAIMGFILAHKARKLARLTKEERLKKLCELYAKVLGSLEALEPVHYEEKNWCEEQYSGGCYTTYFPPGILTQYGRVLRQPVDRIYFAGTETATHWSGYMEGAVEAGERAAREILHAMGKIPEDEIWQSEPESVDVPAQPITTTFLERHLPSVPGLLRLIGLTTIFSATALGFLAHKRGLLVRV
Description: Inhibitory effects on the activity of MAO-B (Amplex Red fluorescence, benzylamine substrate). To be noted: for inhibition at 0.01 µM: read-out: Inhibitory effects (%) on the activity of MAO-B. The test is classed as biochemical. In outline: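 Human MAO-B, diluted 1:200 in 0.05 M sodium phosphate pH 7.4, was pre-incubated with compound for 30 min. It was then mixed 1:1 with working buffer holding 400 μM Amplex Red, 2 U/ml HRP and 2 mM benzylamine (working-buffer levels). Fluorescence (Ex 563/Em 587 nm) was read over 30 min.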

As for `NC(=O)OCc1cc(-c2ccc(OCc3ccccc3)cc2)ns1` [Example 3, carbamic acid 3-(4-benzyloxy-phenyl)-isothiazol-5-ylmethyl ester], in test [1], the “Concentration of dopamine compared to a control group %, 1 hr” value (from here on “Concentration … to a control group %, 1 hr”) is on record as 173.43% and the “Concentration of dopamine compared to a control group %, 3 hr” value (“Concentration … to a control group %, 3 hr” for short) is on record as 39.3%. Also, the response vs control in vivo at 10 mg/kg in test [2] turned out to be 70.3%. Further, the inhibition at 0.01 µM in test [3] was 95.2%.

For `NC(=O)OCc1cc(-c2ccc(OCc3ccccc3F)cc2)no1` [Example 11, carbamic acid 3-[4-(2-fluoro-benzyloxy)-phenyl]-isoxazol-5-ylmethyl ester], the response vs control in vivo at 10 mg/kg in test [2] is 82.2%. The inhibition at 0.01 µM in test [3] (treatment concentration 10 nM) stood at 101%.

Consider `NC(=O)OCc1cc(-c2ccc(OCc3c(F)cccc3F)cc2)no1` [Example 14, carbamic acid 3-[4-(2,6-difluoro-benzyloxy)-phenyl]-isoxazol-5-ylmethyl ester], for which the response vs control in vivo at 10 mg/kg in test [2] came out at 75.3%. Also, the inhibition at 0.01 µM in test [3] (treatment concentration 10 nM) was found to be 96%.

Turning to `CCCCOc1ccc(-c2cc(COC(N)=O)on2)cc1` [Example 43, carbamic acid 3-(4-butoxy-phenyl)-isoxazol-5-ylmethyl ester], the response vs control in vivo at 10 mg/kg in test [2] was found to be 71%. Moreover, in test [3], the inhibition at 0.01 µM is 96.8%.

Regarding `NC(=O)OCc1cc(-c2ccc(OCSC(F)(F)F)cc2)no1` [Example 58, carbamic acid 3-(4-trifluoromethylsulfanylmethoxy-phenyl)-isoxazol-5-ylmethyl ester], in test [2], the response vs control in vivo at 10 mg/kg came to 98.9%. The inhibition at 0.01 µM in test [3] was found to be 88.1%.

For `NC(=O)OCc1cc(-c2ccc(OCc3cccnc3)cc2)no1` [Example 66, Carbamic acid 3-[4-(pyridin-3-ylmethoxy)-phenyl]-isoxazol-5-ylmethyl ester], the response vs control in vivo at 10 mg/kg in test [2] stood at 74.9%. In test [3], the inhibition at 0.01 µM was found to be 87.3%.

As to `Cc1noc(C)c1COc1ccc(-c2cc(COC(N)=O)on2)cc1` [Example 72, carbamic acid 3-[4-(3,5-dimethyl-isoxazol-4-ylmethoxy)-phenyl]-isoxazol-5-ylmethyl ester], the response vs control in vivo at 10 mg/kg in test [2] was 91.4%. For the same molecule, the inhibition at 0.01 µM in test [3] (treatment concentration 10 nM) amounted to 87.9%.

Consider `NC(=O)OCc1cc(-c2ccc(NCc3ccc(F)cc3F)cc2)no1` [Example 81, Carbamic acid 3-[4-(2,4-difluoro-benzylamino)-phenyl]-isoxazol-5-ylmethyl ester], for which the response vs control in vivo at 10 mg/kg in test [2] is 72.6%. Moreover, the inhibition at 0.01 µM in test [3] (treatment concentration 10 nM) was determined as 91.4%.

In the case of `Cc1cccc(CNc2ccc(-c3cc(COC(N)=O)on3)cc2)c1` [Example 101, Carbamic acid 3-[4-(3-methyl-benzylamino)-phenyl]-isoxazol-5-ylmethyl ester], the response vs control in vivo at 10 mg/kg in test [2] is 78.3%. Further, the inhibition at 0.01 µM in test [3] (treatment concentration 10 nM) amounted to 80.5%.

Turning to `COc1ccccc1CNc1ccc(-c2cc(COC(N)=O)on2)cc1` [Example 104, Carbamic acid 3-[4-(2-methoxy-benzylamino)-phenyl]-isoxazol-5-ylmethyl ester], in test [2], the response vs control in vivo at 10 mg/kg was 82%. Also, the inhibition at 0.01 µM in test [3] (treatment concentration 10 nM) was found to be 89.1%.

`NC(=O)OCc1cc(-c2ccc(NCc3cccs3)cc2)no1` [Example 110, carbamic acid 3-{4-[(thiophen-2-ylmethyl)-amino]-phenyl}-isoxazol-5-ylmethyl ester]: the response vs control in vivo at 10 mg/kg in test [2] was 80.7%. Moreover, the inhibition at 0.01 µM in test [3] turned out to be 80.8%.

For the molecule `NC(=O)OCc1cc(-c2ccc(NCc3ccoc3)cc2)no1` [Example 111, carbamic acid 3-{4-[(furan-3-ylmethyl)-amino]-phenyl}-isoxazol-5-ylmethyl ester], the response vs control in vivo at 10 mg/kg in test [2] stood at 78.8%. Moreover, the inhibition at 0.01 µM in test [3] is 69%.

For the molecule `O=C(OCc1cc(-c2ccc(OCc3ccccc3)cc2)no1)n1ccnc1` [Example 120, Imidazole-1-carboxylic acid 3-(4-benzyloxy-phenyl)-isoxazol-5-ylmethyl ester], in test [1], the “Concentration … to a control group %, 1 hr” value is given as 148.5% and the “Concentration … to a control group %, 3 hr” value was 53.9%. Besides, the inhibition at 0.01 µM in test [3] (treatment concentration 10 nM) worked out at 87.8%.

On to `O=C(OCc1cc(-c2ccc(OCc3ccccc3)cc2)no1)N1CCOCC1` [Example 127, morpholine-4-carboxylic acid 3-(4-benzyloxy-phenyl)-isoxazol-5-ylmethyl ester], for which, in test [1], the “Concentration … to a control group %, 1 hr” value was determined as 140.7% and the “Concentration … to a control group %, 3 hr” value amounted to 60.4%. Also, in test [3] (treatment concentration 10 nM), the inhibition at 0.01 µM worked out at 45.3%.

Turning to `NCCCNC(=O)OCc1cc(-c2ccc(OCc3ccccc3)cc2)no1` [Example 130, (3-amino-propyl)-carbamic acid 3-(4-benzyloxy-phenyl)-isoxazol-5-ylmethyl ester], in test [1], the “Concentration … to a control group %, 1 hr” value is given as 131.9% and the “Concentration … to a control group %, 3 hr” value worked out at 77.0%. Also, the inhibition at 0.01 µM in test [3] (treatment concentration 10 nM) turned out to be 52.9%.

On to `c1ccc(COc2ccc(-c3cc(CN4CCCC4)on3)cc2)cc1` [Example 148, 3-(4-benzyloxy-phenyl)-5-pyrrolidin-1-ylmethyl-isoxazole], for which the response vs control in vivo at 10 mg/kg in test [2] is 95.9%. In addition, the inhibition at 0.01 µM in test [3] (treatment concentration 10 nM) stood at 79%.

Regarding `NC(=O)NCc1cc(-c2ccc(OCc3ccccc3)cc2)no1` [Example 152, [3-(4-benzyloxy-phenyl)-isoxazol-5-ylmethyl]-urea], in test [1], the “Concentration … to a control group %, 1 hr” value was 87.0% and the “Concentration … to a control group %, 3 hr” value came to 77.0%. Besides, the inhibition at 0.01 µM in test [3] (treatment concentration 10 nM) is 96.1%.

Consider `NC(=O)CNCc1cc(-c2ccc(OCc3ccccc3)cc2)no1` [Example 162, 2-{[3-(4-benzyloxy-phenyl)-isoxazol-5-ylmethyl]-amino}-acetamide], for which, in test [1], the “Concentration … to a control group %, 1 hr” value is on record as 148.3% and the “Concentration … to a control group %, 3 hr” value is reported as 100.1%. For the same molecule, in test [3] (treatment concentration 10 nM), the inhibition at 0.01 µM came to 66.1%.

In the case of “[carbamic acid 3-(4-methylsulfanylmethoxy-phenyl)-isoxazol-5-ylmethyl ethyl ester [Example 48]”, in test [2], the “Mobility (%)” value came to 74.6%. Further, the “Inhibitory effects (%) on the activity of MAO-B” value in test [3] (treatment concentration 10 nM) is given as 48.4%.
